Columns and labels:
GLUTag cells = test: Glucagon-like peptide 1 secretion in GLUTag cells; type: cell-based, murine; details: Mus musculus, 2 h at 37 C, 5 mM glucose, read-out: EC50 (agonist concentration that gives 50% increase in GLP-1)
Procedure: Effects of GPR119 agonists on glucagon-like peptide 1 (GLP-1) secretion are determined in vitro in GLUTag cells. GLUTag cells are an immortalized murine intestinal enteroendocrine cell line that express the preproglucagon gene and secrete GLP-1 in a regulated manner (Brubaker P L, Schloos J, Drucker D J. Regulation of glucagon-like peptide-1 synthesis and secretion in the GLUTag enteroendocrine cell line. Endocrinology. 1998 139:4108-14). To measure GLP-1 secretion, 15,000 cells/well are seeded in 96-well-plate and incubated for 3 days in DMEM supplemented with 10% FBS and 1% Glutamine. On the day of the experiment, cells are washed twice with the incubation buffer, EBSS supplemented with 5 mM glucose and 0.1% BSA. 150 μL of the incubation buffer containing test compounds is added to each well and cells are incubated at 37° C. for 2 h. After incubation, the supernatant is collected and filtered using 96-well-filter-plates. GLP-1 content in the filtrate is determined with the Mouse/Rat Total GLP-1 Assay (Meso Scale Discovery). The potency of the GPR119 agonists to stimulate GLP-1 secretion is determined as the agonist concentration that gives 50% increase in GLP-1 (EC50).

human GPR119 = molecular target: T1, human GPR119 (Homo sapiens, UniProt Q8TDV5); test: Human GPR119 activity assay (cAMP HTRF in 293 T-REx cells expressing hGPR119); type: cell-based; details: 293 T-REx cells expressing hGPR119, cAMP HTRF, 1 h incubation; read-out: EC50 (agonist concentration that gives 50% activation of the hGPR119 mediated cAMP increase)
T1 construct: expressed in transfected cells
T1 sequence (Q8TDV5 1-335): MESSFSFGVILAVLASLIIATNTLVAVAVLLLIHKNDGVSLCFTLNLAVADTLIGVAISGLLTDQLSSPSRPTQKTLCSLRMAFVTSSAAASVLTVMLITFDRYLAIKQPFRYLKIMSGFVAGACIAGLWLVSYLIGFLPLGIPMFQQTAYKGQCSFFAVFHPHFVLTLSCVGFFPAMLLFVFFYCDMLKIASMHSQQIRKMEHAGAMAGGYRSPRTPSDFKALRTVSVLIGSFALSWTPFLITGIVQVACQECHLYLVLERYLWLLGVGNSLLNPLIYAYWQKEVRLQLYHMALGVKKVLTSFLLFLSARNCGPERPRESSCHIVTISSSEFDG
Procedure: A stable cell line expressing human GPR119 off an inducible promoter is generated in 293 T-REx™ cells (Invitrogen). T-REx™ (Tetracycline-Regulated Expression) cell line stably expresses the tetracycline repressor protein and, therefore, allow for inducible expression of the gene of interest (GPR119) with doxycycline. Agonists to the human GPR119 receptor are characterized by measuring increases in the cAMP levels in 293 T-REx™ cells expressing hGPR119. 10,000 cells/well are seeded into a 96-well plate and cultured for 24 h in DMEM supplemented with 10% fetal bovine serum, 15 μg/mL Blasticidin and 200 μg/mL Hygromycin B. Next day, cells are stimulated with 1 ng/mL Doxycycline in DMEM with no further addition of Hygromycin B and Blasticidin. cAMP assay is performed after 18 h incubation with doxycycline. cAMP is determined using the cAMP HiRange HTRF assay (Cisbo International). Cells are washed with PBS and pre-incubated for 15 min with PBS supplemented with 2 mM glucose, 0.25 mM IBMX and 0.1% BSA. Test compounds diluted in the pre-incubation buffer are added and cells are further incubated at room temperature for 1 h. Incubation is stopped by addition of HTRF reagents diluted in the lysis buffer, followed by incubation for 1 h and measurements of fluorescence at […]. The potency of the agonists is determined as the agonist concentration that gives 50% activation of the hGPR119 mediated cAMP increase (EC50).

[1] = Oral bioavailability in Sprague-Dawley rats; type: in vivo; details: male, rat, plasma, 1 mg/kg IV, 3 mg/kg oral gavage
From the text: (§1) Methods for accessing oral bioavailability are well appreciated in the art. One such reference is Medicinal Research Reviews Vol 21 No. 5 382-396 (2001). The oral bioavailability of compounds of the present invention may be estimated essentially as follows.
(§2) Cohorts of three 250-400 gram male Sprague-Dawley rats or approximately 10 kg Beagle dogs (female or male) are used. […] Dogs are IV administered the compounds by cannulated cephalic vein and blood collections are by jugular vein. Animals are first IV dosed at 1 mg/kg and blood samples (0.1 to 0.2 mL) are then collected using EDTA as an anticoagulant at 0.0830, 0.25, 0.50, 1, 2, 4, 8, 12, and 24 h. After at least two days and overnight fasting, the animals are dosed at 3 mg/kg by oral gavage. Blood samples (0.1 to 0.2 mL) are then collected using EDTA as an anticoagulant at 0.25, 0.50, 1, 2, 4, 6, 8, 12, and 24 h. During the course of a study the total of blood (mL) collected is not to exceed 1% of total body weight in grams.
(§3) Compound plasma concentrations are measured by LC/MS/MS assays. Data are then analyzed using standard non-compartmental pharmacokinetic analysis. Oral bioavailability is calculated as: (AUC0-inifinity, oral/AUC0-inifinity, IV)×(Dose, IV./Dose, oral)×100%

total GIP = test: Mouse Gastric Inhibitory Polypeptide (GIP) assay; type: in vivo; details: male C57BL/6 mice, 0.5-6 h
Procedure: Male C57BL/6 mice (8-10 weeks of age, n=20/dose level, n=5/time point) are fasted overnight (16 hr), weighed the following morning, and then orally dosed with vehicle (1% HEC) or various doses of test article at 5 mL/kg. Animals are euthanized by CO2 asphyxiation for 1 minute, and then blood is collected by cardiac puncture at various times (0.5, 1.5, 3, and 6 h post compound dose) into EDTA plasma tubes containing 10 μL/mL DPP4 inhibitor (Millipore, DPP4-010) and 1.1×10^5 KIU/mL aprotinin. Blood samples are kept on ice until plasma is separated by centrifugation at 3000×g for 5 min. Resulting plasma samples are placed into 96-well plates and stored at −20° C. until analyzed. Measurements of total GIP (measured by Millipore kit EZRMGIP-55K) are performed for each time-point. For each treatment group, the AUC for GIP is determined by applying the trapezoid rule to the timepoint-specific average GIP levels. Potencies were estimated using piecewise linear interpolation across the collection of calculated GIP AUCs above vehicle from a dose response study. Compound potency is defined as the dose and/or concentration of compound that yielded an increase of 350 pg*hr/mL above the vehicle group GIP AUC over the timecourse of the experiment.

[2] = Oral bioavailability in Beagle dogs; type: in vivo; details: dog, plasma, 1 mg/kg IV, 3 mg/kg oral gavage
From the text: as §1, §2, §3

plasma glucose = test: Mouse Oral Glucose Tolerance Test (OGTT); type: in vivo, C57BL/6 mice
Procedure: Normal C57BL/6 mice are fasted overnight, randomized into groups (n=6) and orally dosed with vehicle (1% HEC, 0.25% tween 80, 0.05% antifoam) or 0.9, 2, 6 and 18 mg/kg GPR119 agonist suspended in vehicle. 30 minutes after the compound is administered, mice are dosed orally with a 50% dextrose solution at 3 g/kg. At various times (0, 20, 40, or 60 minutes post glucose), the mice are restrained in cotton gloves or paper towels and 1 mm or less of the tail is cut. A small drop of blood is placed onto Accu-Chek® glucometers (Roche model 22-044217) for glucose measurements. Three glucometers are used to read glucose in each collected sample, with the median value being reported as the final glucose value. Area under the plasma glucose curve (glucose AUC) is calculated for each group and the percentage decrease in the glucose AUC versus the control group is used as a measure of efficacy of the compound to decrease plasma glucose.

[3] = system: Diet-Induced Obese (DIO) mice; test: Chronic treatment of Diet-Induced Obese (DIO) mice; type: in vivo, C57/BL6 mice; details: 30 mg/kg once daily, 3 weeks
Procedure: DIO male C57/BL6 mice are maintained on a calorie-rich diet and have free access to food and water for at least 2 weeks before randomization into groups by weight (n=8) and treatment. Animals are individually housed in a temperature-controlled (24° C.) facility with 12 hour light, 12 hour dark cycle. Body weights range from 34-40 g. Mice are administrated once daily vehicle (1% HEC), 30 mg/kg GPR119 agonist, 30 mg/kg DPPIV inhibitor or a combination of 30 mg/kg GPR119 agonist and 30 mg/kg DPPIV inhibitor. Treatment continues for 3 weeks. Food and body weights are recorded daily before dark photoperiod. Cumulative body weight change is calculated as the daily body weight minus body weight before treatment for each animal and presented as an average for the group. Food intake is measured daily for each animal and combined with the total amount of food consumed by that animal from all previous days to yield cumulative food intake, which is then averaged for the group. At the end of the study OGTT is performed after overnight fasting.

[4] = oral dosing 30 min before 3 g/kg dextrose, normal C57BL/6 mice

**Q.** Which EC50 (GLUTag cells) does the source give for `CC(F)(F)CN1CCC(COc2ccc(C3=CCN(S(C)(=O)=O)CC3)cc2)CC1` [Example 9, 4-{4-[1-(2,2-Difluoro-propyl)-piperidin-4-ylmethoxy]-phenyl}-1-methanesulfonyl-1,2,3,6-tetrahydro-pyridine] here?
**A.** Its EC50 is 36.8 nM.

**Q.** For `CS(=O)(=O)N1CC=C(c2ccc(OCC3CCN(CC4(C(F)(F)F)CC4)CC3)cc2)CC1` [Example 10, 1-Methanesulfonyl-4-{4-[1-(1-trifluoromethyl-cyclopropylmethyl)-piperidin-4-ylmethoxy]-phenyl}-1,2,3,6-tetrahydro-pyridine], which EC50 (human GPR119) is on record?
**A.** Its EC50 is 0.95 nM.

**Q.** And the bioavailability [1]?
**A.** The bioavailability was 53%.

**Q.** And the “increase in GIP AUC over vehicle” value (total GIP; 10 mg/kg oral dose)?
**A.** Its value is 762 pg·h/mL.

**Q.** Which “increase in GIP AUC over vehicle” value (total GIP; 10 mg/kg oral dose) does the source give for `CC(C)(CN1CCC(COc2ccc(C3=CCN(S(C)(=O)=O)CC3)nc2)CC1)C(F)(F)F` [Example 3, 1′-Methanesulfonyl-5-[1-(3,3,3-trifluoro-2,2-dimethyl-propyl)-piperidin-4-ylmethoxy]-1′,2′,3′,6′-tetrahydro-[2,4′]bipyridinyl] here?
**A.** Its value is 762 pg·h/mL.

**Q.** For `CC(C)(F)CN1CCC(COc2ccc(C3=CCN(S(C)(=O)=O)CC3)nc2)CC1` [Example 6, 5-[1-(2-Fluoro-2-methyl-propyl)-piperidin-4-ylmethoxy]-1′-methanesulfonyl-1′,2′,3′,6′-tetrahydro-[2,4′]bipyridinyl], which EC50 (human GPR119) is on record?
**A.** The EC50 was 0.95 nM.

**Q.** And the EC50 (GLUTag cells)?
**A.** Its EC50 is 62.7 nM.

**Q.** What about the bioavailability [2] of the same compound?
**A.** The bioavailability was 90%.

**Q.** What about the “increase in GIP AUC over vehicle” value (total GIP; 1.6 mg/kg oral dose) of the same compound?
**A.** The value was 422 pg·h/mL.

**Q.** What about the ED50 (plasma glucose; Mus musculus, oral, doses 0.9, 2, 6 and 18 mg/kg, normal C57BL/6 mice, read-out: ED50 (dose which produces a 50% decrease in glucose area under the curve)) of the same compound?
**A.** Its ED50 is 0.4 mg/kg.

**Q.** What about the glucose tolerance (plasma glucose; [4]) of the same compound?
**A.** The glucose tolerance was “improved glucose tolerance”.

**Q.** And the postprandial plasma glucose (plasma glucose; [4])?
**A.** The postprandial plasma glucose was “significantly decreased”.

**Q.** And the fasting plasma glucose (plasma glucose; oral dosing, normal C57BL/6 mice fasted overnight)?
**A.** Its fasting plasma glucose is “did not influence”.

**Q.** What about the body weight [3] of the same compound?
**A.** Its body weight is “mild decrease”.

**Q.** What about the food intake [3] of the same compound?
**A.** Its food intake is “mild decrease”.

**Q.** What about the plasma glucose levels ([3]; OGTT at end of study) of the same compound?
**A.** Its plasma glucose levels is “did not significantly modify”.

**Q.** Which EC50 (human GPR119) does the source give for `CC(Oc1ccc(C2=CCN(S(C)(=O)=O)CC2)cc1)C1CCN(CC(C)(C)F)CC1` (single isomer, unassigned) [Example 8, 4-(4-{1-[1-(2-Fluoro-2-methyl-propyl)-piperidin-4-yl]-ethoxy}-phenyl)-1-methanesulfonyl-1,2,3,6-tetrahydro-pyridine] here?
**A.** The EC50 was 1.1 nM.

**Q.** For `CC(C)(F)CN1CCC(COc2ccc(C3=CCN(S(C)(=O)=O)CC3)cc2F)CC1` [Example 7, 4-{3-Fluoro-4-[1-(2-fluoro-2-methyl-propyl)-piperidin-4-ylmethoxy]-phenyl}-1-methanesulfonyl-1,2,3,6-tetrahydro-pyridine], which EC50 (human GPR119) is on record?
**A.** The EC50 was 2.13 nM.

**Q.** For `CS(=O)(=O)N1CC=C(c2ccc(OCC3CCN(CC4(F)CCCC4)CC3)cc2)CC1` [Example 1, 4-{4-[1-(1-Fluoro-cyclopentylmethyl)-piperidin-4-ylmethoxy]-phenyl}-1-methanesulfonyl-1,2,3,6-tetrahydro-pyridine], which EC50 (human GPR119) is on record?
**A.** Its EC50 is 4.61 nM.

**Q.** With `N[C@@H](CC(=O)N1CCn2c(nnc2C(F)(F)F)C1)Cc1cc(F)c(F)cc1F` [Sitagliptin, sitagliptin, reference compound] as the compound, how does the body weight [3] read?
**A.** Its body weight is “did not alter”.

**Q.** What about the food intake [3] of the same compound?
**A.** Its food intake is “did not alter”.

Source: patent US8207344B2, “GPR119 agonists” (Eli Lilly and Company, priority 2009, dated 2012)
